These are literature values, as cited in patent publication US8101207B2, “Composition containing medicine extremely slightly soluble in water and method for preparation thereof” (Kowa Co., Ltd., priority 2003, dated 2012).

Data set [1] concerns interleukin-1β. Particulars: known from Japanese Patent Application Laid-Open (kokai) No. 12-198776.

Take `CSc1ccc(-c2nn(Cc3ccccc3)c(=O)cc2-c2ccc(Cl)cc2)cc1` [Compound A, 2-benzyl-5-(4-chlorophenyl)-6-[4-(methylthio)phenyl]-2H-pyridazin-3-one]: the solubility in water entry was “very low solubility”. Moreover, the “effect of inhibiting production of interleukin-1β” value in data set [1] was “excellent effect”.
